Results from paper PMC9963138 (Molecules, 2023).
Entries after “also recorded” stand apart in the source; their conditions may differ. Positions of bridges follow the written chain, without caps; N, C: chain ends. Non-standard residues stand in square brackets, D forms with d. Residues, ends and D or L forms follow the SMILES beside them. Pen = CC(C)(S)[C@H](N)C(=O)O; Orn = NCCC[C@H](N)C(=O)O

What was measured:
μ-opioid receptors (MOR) [1] = conditions: cited from earlier work
μ-opioid receptors (MOR) [2] = conditions: cited from earlier work; remark: listed apart in the source
KOR = KOR (Mus musculus, UniProt P33534); assay: 55 °C warm-water tail-withdrawal test, antagonism of KOR-selective agonist U50,488; conditions: mice; 100 μg i.n.s. pretreatment; U50,488 100 nmol i.c.v.; p = 0.99; 7–8 mice
Protocol: (§1) All solutions for animal administration were prepared fresh daily. All mice were lightly anesthetized with isoflurane (0.4%) prior to compound administration. […] The volume of all i.c.v. injections was 5 μL, using a 10-μL Hamilton microliter syringe. An incision was made in the scalp of the lightly anesthetized mouse, and the injection was made 2 mm lateral and 2 mm caudal to bregma at a depth of 3 mm.
(§2) The distal 2.5 cm of a mouse tail was immersed in warm (55 °C) water contained in a 1.5-L heated water bath. The time from the onset of the noxious heat stimulus to the withdrawal of the tail from the heat source was recorded.

MOR = molecular target: T1, MOR (Mus musculus, UniProt P42866); assay: 55 °C warm-water tail-withdrawal test, antagonism of i.c.v. morphine; format: in vivo, C57BL/6J mice; conditions: mice, p = 0.003
T1 construct: MOR antagonism by CTOP was confirmed in vivo by pretreating mice with the parent peptide; from tissue; host or cells: living male C57BL/6J mice (central nervous system)

C57BL/6J mice [3] = assay: 55 °C warm-water tail-withdrawal test, compound alone
Protocol: Graded doses of OL-CTOP (100, 300 or 600 μg) were first administered through the intranasal (i.n.s.) route.
All mice were lightly anesthetized with isoflurane (0.4%) prior to compound administration. […] The volume of all i.c.v. injections was 5 μL, using a 10-μL Hamilton microliter syringe. An incision was made in the scalp of the lightly anesthetized mouse, and the injection was made 2 mm lateral and 2 mm caudal to bregma at a depth of 3 mm.
The 55 °C warm-water tail-withdrawal test was performed as previously described [73]. The distal 2.5 cm of a mouse tail was immersed in warm (55 °C) water contained in a 1.5-L heated water bath. The time from the onset of the noxious heat stimulus to the withdrawal of the tail from the heat source was recorded.

[4] = molecular target: T2, trypsin immobilized on agarose resin (Bos taurus, UniProt P00760); assay: Proteolytic stability toward immobilized trypsin; conditions: RP-HPLC and MALDI-TOF MS
T2 sequence (P00760 24-246): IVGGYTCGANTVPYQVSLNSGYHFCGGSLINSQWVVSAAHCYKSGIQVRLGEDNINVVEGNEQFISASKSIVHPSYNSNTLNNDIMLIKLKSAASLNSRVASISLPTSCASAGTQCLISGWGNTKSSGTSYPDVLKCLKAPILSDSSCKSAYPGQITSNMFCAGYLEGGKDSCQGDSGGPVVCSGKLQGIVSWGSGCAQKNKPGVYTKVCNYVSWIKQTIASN
Protocol: Immobilized trypsin helped eliminate enzyme digest contamination and thus simplify sample analysis. […] After incubation at 37 °C for 20 min, 1 h, and 16 h, 20 μL of treated samples was collected and analyzed by analytical RP-HPLC and MALDI-TOF MS (Supplementary Materials).

C57BL/6J mice [5] = assay: Breathing rate in mice (Oxymax/CLAMS), morphine-induced respiratory depression; format: in vivo
Protocol: Mice were administered intranasal saline or OL-CTOP (100 or 600 μg) 45 min prior to intraperitoneal morphine (20 mg/kg).
Respiration rates (in breaths per minute) were assessed using the Oxymax/CLAMS system (Columbus Instruments, Columbus, OH, USA) as described previously. Mice were habituated to their individual sealed housing chambers for 60 min before testing. Mice were administered morphine (20 mg/kg, i.p.) or vehicle, as indicated, and 5 min later, confined to the CLAMS testing chambers. Additional mice received pretreatment with saline (i.n.s.) or OL-CTOP (100 or 600 μg, i.n.s.) 45 min prior to morphine (20 mg/kg, i.p.). Pressure monitoring within the sealed chambers measured the frequency of respiration. Respiration data were averaged over 20 min periods for 120 min post-i.p. injection of the saline or morphine. Data are presented as % vehicle response ± SEM, breaths per minute.

asialofetuin (ASF) = molecular target: T3, asialofetuin (ASF) (Bos taurus, UniProt P12763); assay: Carbohydrate-binding study by isothermal titration calorimetry (ITC)
T3 construct: purchased Sigma-Aldrich
T3 sequence (P12763 19-359): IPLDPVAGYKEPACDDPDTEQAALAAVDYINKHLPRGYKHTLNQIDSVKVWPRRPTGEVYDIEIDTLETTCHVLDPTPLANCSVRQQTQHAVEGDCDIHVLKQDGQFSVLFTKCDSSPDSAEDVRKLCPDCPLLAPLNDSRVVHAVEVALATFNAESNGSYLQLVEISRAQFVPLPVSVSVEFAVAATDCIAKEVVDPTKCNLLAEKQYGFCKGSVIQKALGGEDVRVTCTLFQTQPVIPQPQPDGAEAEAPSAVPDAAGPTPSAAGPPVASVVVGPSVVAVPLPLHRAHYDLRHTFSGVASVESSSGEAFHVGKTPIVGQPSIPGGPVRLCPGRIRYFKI
Protocol: We have shown previously that odorranalectin binds to model glycoproteins containing terminal Fuc, Gal and GalNAc sugar moieties with μM affinities and identified the binding interface. […] The binding affinities of OL-CTOP toward ASF were determined by Isothermal Titration Calorimetry (ITC). […] The enthalpy (ΔH) of the binding interaction between OL-CTOP and ASF was −131 kJ/mol, whereas the entropy (−TΔS) was 109.5 kJ/mol, showing that the OL-CTOP/ASF interaction is an enthalpy-driven process, which is typical for interactions between lectins and carbohydrate ligands.
A binding study was performed at 25 °C in 20 mM HEPES at pH 7.0 by using a titration calorimeter PEAQ-ITC (Malvern, Northampton, MA) with a reaction cell volume of 300 μL. Typically, asialofetuin solutions (240 μM) were in the reaction cell and titrated with solutions of OL-CTOP at a concentration of 4000 μM. OL-CTOP and asialofetuin were dialyzed and prepared in the same buffer. At least 18 consecutive injections of 2 μL were applied every 120 s interval at a constant stir speed of 750 rpm. The concentrations of OL-CTOP and ASF were confirmed by measurements using a BioTek Epoch microplate spectrophotometer (Agilent Technologies, Santa Clara, CA, USA). The raw integrated heat plots were analyzed using the MicroCal PEAQ-ITC software v1.21 (Malvern) under the 1-set-of-sites model, and the control parameter as a fitted offset was applied to each titration as per the manufacturer’s guidelines and our previous applications. The reported thermodynamic parameters were derived from two independent experiments and then averaged.

DOR = DOR (Mus musculus, UniProt P32300); assay: 55 °C warm-water tail-withdrawal test, antagonism of DOR-selective agonist SNC-80; conditions: mice; 100 μg i.n.s. pretreatment; SNC-80 100 nmol i.c.v.; p = 0.67; 7–8 mice
Protocol: as §1, §2

[6] = system: tosylsulfonyl phenylalanyl chloromethyl ketone (TPCK) trypsin immobilized on agarose resin; assay: TPCK trypsin immobilized on agarose resin in digestion buffer (0.1 M NH4HCO3 [pH 8.0]); conditions: 37 °C, up to 16 h (methods); 24 h (results, b12 and Figure 2)
[7] = system: model glycoproteins containing terminal Fuc, Gal and GalNAc sugar moieties; conditions: cited from earlier work
Source text: We have shown previously that odorranalectin binds to model glycoproteins containing terminal Fuc, Gal and GalNAc sugar moieties with μM affinities and identified the binding interface.

[8] = in vivo; cited from earlier work
Source text: Opioid medication misuse, addiction, and overdose are growing public health problems nationwide. Methadone, buprenorphine, naltrexone and naloxone are the only FDA-approved medications to treat opioid use disorder (OUD) and, in the case of opioid receptor antagonists naltrexone and naloxone, overdose. […] Given their potency, peptides represent particularl ...

[9] = 25 °C, 20 mM HEPES pH 7.0, average of two independent experiments

T1 sequence (P42866 whole entry): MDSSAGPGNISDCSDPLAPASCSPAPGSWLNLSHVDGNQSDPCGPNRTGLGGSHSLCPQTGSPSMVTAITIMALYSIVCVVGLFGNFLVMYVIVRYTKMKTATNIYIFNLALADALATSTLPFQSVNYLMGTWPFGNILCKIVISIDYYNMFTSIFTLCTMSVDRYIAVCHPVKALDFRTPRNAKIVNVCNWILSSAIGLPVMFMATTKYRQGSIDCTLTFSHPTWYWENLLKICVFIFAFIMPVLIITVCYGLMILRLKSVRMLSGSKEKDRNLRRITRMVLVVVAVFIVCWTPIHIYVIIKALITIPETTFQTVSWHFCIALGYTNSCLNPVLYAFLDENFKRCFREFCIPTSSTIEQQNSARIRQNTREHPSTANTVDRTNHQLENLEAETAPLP
Chain of DOR (P32300 whole entry): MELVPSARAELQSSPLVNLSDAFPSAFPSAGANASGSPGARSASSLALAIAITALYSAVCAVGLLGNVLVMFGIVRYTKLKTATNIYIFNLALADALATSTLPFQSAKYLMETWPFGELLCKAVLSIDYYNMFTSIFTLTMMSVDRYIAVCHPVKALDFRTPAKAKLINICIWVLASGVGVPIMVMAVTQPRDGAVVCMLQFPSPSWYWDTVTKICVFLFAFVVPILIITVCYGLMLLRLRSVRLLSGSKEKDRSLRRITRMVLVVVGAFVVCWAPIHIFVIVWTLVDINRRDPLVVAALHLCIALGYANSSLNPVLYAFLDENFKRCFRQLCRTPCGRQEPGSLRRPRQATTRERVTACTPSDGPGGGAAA
Chain of KOR (P33534 whole entry): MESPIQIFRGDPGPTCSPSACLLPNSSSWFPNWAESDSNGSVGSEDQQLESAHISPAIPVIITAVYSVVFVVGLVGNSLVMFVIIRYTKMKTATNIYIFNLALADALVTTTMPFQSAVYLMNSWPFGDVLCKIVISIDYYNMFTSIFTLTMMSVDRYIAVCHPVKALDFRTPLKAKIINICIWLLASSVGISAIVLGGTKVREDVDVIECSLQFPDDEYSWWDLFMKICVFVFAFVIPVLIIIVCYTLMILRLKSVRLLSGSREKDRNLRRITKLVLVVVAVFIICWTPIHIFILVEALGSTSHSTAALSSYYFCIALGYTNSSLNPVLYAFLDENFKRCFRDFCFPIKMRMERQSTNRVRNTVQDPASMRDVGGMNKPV

For `C[C@@H](O)[C@H](NC(=O)[C@H]1NC(=O)[C@H]([C@@H](C)O)NC(=O)[C@H](CCCN)NC(=O)[C@@H](Cc2c[nH]c3ccccc23)NC(=O)[C@H](Cc2ccc(O)cc2)NC(=O)[C@@H](NC(=O)[C@H](N)Cc2ccccc2)CSSC1(C)C)C(N)=O` [CTOP, H-D-Phe-cyclo(Cys-Tyr-D-Trp-Orn-Thr-Pen)-Thr-NH2], the “affinity for μ-opioid receptors (MOR)” value (μ-opioid receptors (MOR) [1]) is given as 2.8 nM and the “MOR antagonism, times more potent than naloxone” value (μ-opioid receptors (MOR) [2]) is given as 10–400 times.

With `C[C@H](NC(=O)[C@@H](N)Cc1ccc(O)cc1)C(=O)N[C@@H](CO)C(=O)N1CCC[C@H]1C(=O)N[C@@H](CCCCN)C(=O)N[C@H]1CSSC[C@@H](C(=O)N[C@H](C(N)=O)[C@@H](C)O)NC(=O)[C@H]([C@@H](C)O)NC(=O)[C@H]2NC(=O)[C@H]([C@@H](C)O)NC(=O)[C@H](CCCN)NC(=O)[C@@H](Cc3c[nH]c4ccccc34)NC(=O)[C@H](Cc3ccc(O)cc3)NC(=O)[C@H](CSSC2(C)C)NC(=O)[C@@H](Cc2ccccc2)NC(=O)[C@H](CCCNC(=N)N)NC(=O)[C@H](Cc2ccccc2)NC1=O` [OL-CTOP] (H-YASPKCFR[dF]CY[dW][Orn]T[Pen]TCT-NH2; disulfide 6-17, 10-15; N-terminus assumed) the “antagonism of KOR-selective agonist U50,488” value (KOR) was “without effect”, the “antagonism of MOR-preferring agonist morphine (selectivity test)” value (MOR; 100 μg i.n.s. pretreatment, morphine 10 nmol i.c.v., 7–8 mice) was “significant antagonism” and the “antagonism of morphine antinociception, intranasal pretreatment 30-600 μg” value (MOR; 30, 100, 300 or 600 μg i.n.s., morphine 10 nmol i.c.v. after return to baseline at 45 min, latency 20, 30, 40 min afterward, five to eight mice) was “significant general reduction in the antinociceptive effect of morphine”. For the same compound, the “increase in tail withdrawal latency from baseline, peptide alone” value (C57BL/6J mice [3]; mice, 100, 300 or 600 μg i.n.s., out to 30 min post-administration, p = 0.01) was ~ 1 s, the “further cleavage after 1 h incubation with trypsin” value ([4]; 1 h, immobilized TPCK trypsin, 0.1 M NH4HCO3 pH 8.0, 37 °C) was “the peptide bond between Arg^8 and phe^9 was also cleaved” and the “parent peptide remaining after the first 10 min with trypsin” value ([4]; TPCK trypsin immobilized on agarose, 20 TAME units, 0.1 M NH4HCO3 pH 8.0, 1 mg peptide, 37 °C) was “without a detectable trace of the parent peptide”. For the same compound, the “protection from morphine-induced respiratory depression, 100 μg” value (C57BL/6J mice [5]; 100 μg i.n.s. 45 min prior to morphine 20 mg/kg i.p., p = 0.05 at 20–40 min, p = 0.02 at 40–60 min vs morphine alone) was “significantly prevented morphine-induced respiratory depression”, the “respiration rate versus vehicle-treated mice, late period, 100 μg” value (C57BL/6J mice [5]; 100 μg i.n.s. before morphine 20 mg/kg i.p., 60–120 min, p ≤ 0.03) was “elevated respiration” and the “respiration rate versus vehicle-treated mice out to 60 min, 100 μg” value (C57BL/6J mice [5]; 100 μg i.n.s. before morphine 20 mg/kg i.p., p = 0.06, 0.55 and 0.75) was “no significant differences in respiration rate”. The “protection from morphine-induced respiratory depression, 600 μg” value (C57BL/6J mice [5]; 600 μg i.n.s. 45 min prior to morphine 20 mg/kg i.p., p ≤ 0.009, 0–60 min vs morphine alone) was “significantly prevented morphine-induced respiratory depression”, the “respiration rate versus vehicle-treated mice, 600 μg” value (C57BL/6J mice [5]; 600 μg i.n.s. before morphine 20 mg/kg i.p., 20–120 min, p ≤ 0.04) was “elevated respiration” and the ΔG of binding (asialofetuin (ASF); 20 mM HEPES pH 7.0, one-set-of-sites model) was -21.5 kJ/mol. The Kd (asialofetuin (ASF); 25 °C, 20 mM HEPES pH 7.0, ASF 240 μM in cell, peptide 4000 μM, one-set-of-sites model, average of two independent experiments, read-out: Kd, OL-CTOP/ASF binding) was 176 µM, the “enthalpy (ΔH) of binding” value (asialofetuin (ASF); [9]) was -131 kJ/mol and the “entropy (−TΔS) of binding” value (asialofetuin (ASF); [9]) was 109.5 kJ/mol. For the same compound, the “antagonism of DOR-selective agonist SNC-80” value (DOR) was “without effect”.

With `CN1CC[C@]23c4c5ccc(O)c4O[C@H]2[C@@H](O)C=C[C@H]3[C@H]1C5` [morphine, reference compound] the “tail-withdrawal latency after the agonist alone” value (C57BL/6J mice [3]; control (naïve) mice, 10 nmol i.c.v., versus baseline 1.49 ± 0.09 s, p < 0.0001) was “significant increase in tail-withdrawal latency” and the “respiration after morphine with saline pretreatment versus vehicle alone” value (C57BL/6J mice [5]; morphine 20 mg/kg i.p. after i.n.s. saline, 10–60 min, p < 0.0001) was “significant, time-dependent respiratory depression”.

For “Y-A-S-P-K-C-F-R-f-C-Y-w-O-T-Pen-T-C-T-NH2”, the cleaved bond [6] was “K-C, first_seen, within the first 10 min; also recorded: Arg8-phe9, major, 1 h”.

In the case of “YASPK-cyclo(CFRYPNGVLAC)T (disulfide) [odorranalectin]”, the “affinity for model glycoproteins” value [7] is given as “μM affinities”.

For oxytocin, the “plasma t1/2” value [8] is listed as 1 to 6 min and the “t1/2 in the extracellular space of the brain and in the CSF” value [8] is listed as “approximately 30 min”.
